Assay results published in article PMC11620482, “Phase 1 drug-drug interaction study to assess the effect of CYP3A4 inhibition and pan-CYP induction on the pharmacokinetics and safety of fosmanogepix in healthy participants” (Antimicrobial Agents and Chemotherapy, 2024).
Marks after values point to notes of the source that are not given here.

Experiments:
[1] = Plasma pharmacokinetics of MGX and FMGX (noncompartmental analysis), phase 1 fixed-sequence DDI study with itraconazole or rifampin; assay type: in vivo, human; details: for FMGX AUC(0-23) / FMGX AUC(0-t) / FMGX Cmax / FMGX Tmax / FMGX AUC(inf) / FMGX CL / FMGX Vz / FMGX t½ / FMGX λz: D1; for FMGX AUC(0-23) / FMGX AUC(0-t) / FMGX Cmax / FMGX AUC(inf) / FMGX CL / FMGX Vz / FMGX t½ / FMGX λz: geometric mean (geometric %CV); for FMGX Tmax: median (range)
Method: In cohort 1, MGX plasma samples were collected at specified time points daily on days 1–4, once every 2 days on days 6–14, daily for 3 days from days 18 to 20, once every 2 days from days 21 to 29, and then on day 31, while itraconazole samples were collected at specified time points on days 19, 25, and 31. […] PK parameters were calculated using noncompartmental analysis from the plasma concentration-time data for MGX and FMGX. Primary PK parameters were maximum observed plasma concentration (Cmax), AUC from time 0 to infinity (AUC0-inf), and AUC up to time t (AUC0-t, where t was the last time point with concentrations above the lower limit of quantitation). […] Secondary PK parameters were time to attain Cmax (Tmax), AUC from time 0 to 23 hours (AUC0-23), terminal elimination half-life after the last dosing on the day (t1/2), clearance (CL), volume of distribution at terminal phase (Vz), and terminal phase rate constant after the last dosing on the day (λz).

[2] = Safety and tolerability (adverse events, laboratory findings), phase 1 DDI study
Method: Participants were also excluded if they used any prescription medication (except female contraception) and any over-the-counter medications/supplements within 14 days and 7 days prior to the first admission, respectively.
In both cohorts, FMGX was administered as a 3-hour IV infusion twice a day (BID, dosing interval: […]). All participants received FMGX on 2 days, once before a washout period (minimum 14 days) and once after the washout. […] The study consisted of a screening phase [days −28 to −1 (admission)], assessment phase (cohort 1: days −1 to 31; cohort 2: days −1 to 34), and follow-up phase (cohort 1: day 38 ± 1; cohort 2: day 41 ± 1). Participants in both cohorts had in-clinic stays for two periods: cohort 1 [days −1 to 4 (morning) and days 17 to 31 (morning)], cohort 2 [days −1 to 4 (morning) and day 23 to 34 (morning)], and at home dosing for two periods: cohort 1 (days 15 to 17) and cohort 2 (days 15 to 23).
Safety was assessed by evaluating the frequency of adverse events (AEs) recorded from the first admission (day −1) until completion of the follow-up visit (day 38 ± 1 in cohort 1; day 41 ± 1 in cohort 2). All AEs were classified per the Medical Dictionary for Regulatory Activities (MedDRA v22.1). The investigator ascertained relatedness to study the drug administration.
An analysis of variance (ANOVA) model was used to analyze the natural log-transformed primary PK parameters while the secondary PK parameters were not subjected to inferential statistical analysis. For each cohort, 18 participants were included to ensure at least 16 completed all assessments, as this was considered adequate to evaluate PK, safety, and tolerability. Thus, a sample size of 36 was considered sufficient to assess primary and secondary objectives. […] The PK analysis set included all participants who received at least one dose of FMGX and had adequate plasma concentration data available for PK analysis.

[3] = tested on: Candida, Coccidioides, Cryptococcus, and Aspergillus spp; details: cited from earlier work
CYP450 enzymes = details: cited from earlier work
human CYPs = details: concentrations up to 30 µM in vitro; ref data on file; cited from earlier work
[4] = FMGX only 500 mg BID IV, Cohort 1, n = 16
[5] = FMGX only 500 mg BID IV, Cohort 1, n=12
[6] = FMGX only 1000 mg BID IV, Cohort 2, n = 17
[7] = one participant, cohort 1, considered related to itraconazole, days 31 through 70

With Nc1c(-c2cc(Cc3ccc(COc4ccccn4)cc3)no2)ccc[n+]1COP(=O)([O-])O [FMGX, Fosmanogepix] the “FMGX AUC(0-23)” value [1, 4] was 9945 (16.5) hr×ng/mL, the “FMGX AUC(0-t)” value [1, 4] was 9945 (16.5) hr×ng/mL and the “FMGX Cmax” value [1, 4] was 1520 (18.6) ng/mL. The “FMGX Tmax” value [1, 4] was 10.5 (0.50 – 12.0) hr, the “FMGX AUC(inf)” value [1, 5] was 10191 (18.3)** hr×ng/mL and the “FMGX CL” value [1, 5] was 98128 (18.3)** mL/hr. The “FMGX Vz” value [1, 5] was 53.6 (22.5)** L, the “FMGX t½” value [1, 5] was 0.38 (14.4)** hr and the “FMGX λz” value [1, 5] was 1.83 (14.4)** 1/hr. The “FMGX AUC(0-23)” value [1, 6] was 18162 (22.3) hr×ng/mL, the “FMGX AUC(0-t)” value [1, 6] was 18162 (22.3) hr×ng/mL and the “FMGX AUC(inf)” value [1, 6] was 18163 (22.3) hr×ng/mL. For the same compound, the “FMGX CL” value [1, 6] was 110117 (22.3) mL/hr, the “FMGX Cmax” value [1, 6] was 2974 (24.2) ng/mL and the “FMGX Vz” value [1, 6] was 69.4 (30.4) L. The “FMGX t½” value [1, 6] was 0.44 (18.4) hr, the “FMGX λz” value [1, 6] was 1.59 (18.4) 1/hr and the “FMGX Tmax” value [1, 6] was 9.50 (0.50 – 12.1) hr. The “Effect of CYP3A4 inhibition or pan-CYP induction on exposure to FMGX” value ([1]; both cohorts) was “did not affect exposure”, the “FMGX-related AEs / all events” value ([2]; Cohort 1, FMGX 500 mg) was 4/43 and the “FMGX-related AEs / all events” value ([2]; Cohort 2, FMGX 1,000 mg) was 33/145. For the same compound, the Safety and tolerability ([2]; FMGX 500 and 1,000 mg, alone or with itraconazole 200 mg or rifampin 600 mg) was “safe and well tolerated”, the “Deaths, serious AEs (SAEs), FMGX-related withdrawals” value ([2]; both cohorts, N = 36) was “No deaths, serious AEs (SAEs), or FMGX-related withdrawals” and the “Participants reporting FMGX-related AEs, n (%)” value ([2]; both cohorts, N = 36) was 12 (33.3%). The “AEs considered related to FMGX, number of events” value ([2]; of all 188 events, both cohorts) was 37, the “Efficacy in mouse models of invasive pulmonary and disseminated fungal infections” value [3] was “demonstrated efficacy” and the “Substrate for CYP450 enzymes” value (CYP450 enzymes) was “not a substrate”. The “Reversible or time-dependent inhibition of human CYPs” value (human CYPs) was “No reversible or time-dependent inhibition”.

In the case of CCC(C)n1ncn(-c2ccc(N3CCN(c4ccc(OCC5COC(Cn6cncn6)(c6ccc(Cl)cc6Cl)O5)cc4)CC3)cc2)c1=O (stereo not shown) [ITR, itraconazole, reference compound], the “Increase in alanine transaminase (ALT)” value [2, 7] is reported as ~ 8 × ULN, the “Increase in aspartate transaminase (AST)” value [2, 7] is reported as ~ 11 × ULN and the “Increase in lactate dehydrogenase (LDH)” value ([2]; one participant, cohort 1, day 31 to day 63) is reported as ~ 2 × ULN.
